Here are results for 66 compounds from patent US8877754B2, “Compounds, pharmaceutical compositions and uses thereof” (Boehringer Ingelheim International GmbH, priority 2010, dated 2014).

Structures are written as SMILES.

The target of this test is T1, human ACC2 (Homo sapiens, UniProt O00763).
T1 construct: made in house; host or cells: insect cells, baculoviral expression system
T1 sequence (O00763 129-2458 limits assumed): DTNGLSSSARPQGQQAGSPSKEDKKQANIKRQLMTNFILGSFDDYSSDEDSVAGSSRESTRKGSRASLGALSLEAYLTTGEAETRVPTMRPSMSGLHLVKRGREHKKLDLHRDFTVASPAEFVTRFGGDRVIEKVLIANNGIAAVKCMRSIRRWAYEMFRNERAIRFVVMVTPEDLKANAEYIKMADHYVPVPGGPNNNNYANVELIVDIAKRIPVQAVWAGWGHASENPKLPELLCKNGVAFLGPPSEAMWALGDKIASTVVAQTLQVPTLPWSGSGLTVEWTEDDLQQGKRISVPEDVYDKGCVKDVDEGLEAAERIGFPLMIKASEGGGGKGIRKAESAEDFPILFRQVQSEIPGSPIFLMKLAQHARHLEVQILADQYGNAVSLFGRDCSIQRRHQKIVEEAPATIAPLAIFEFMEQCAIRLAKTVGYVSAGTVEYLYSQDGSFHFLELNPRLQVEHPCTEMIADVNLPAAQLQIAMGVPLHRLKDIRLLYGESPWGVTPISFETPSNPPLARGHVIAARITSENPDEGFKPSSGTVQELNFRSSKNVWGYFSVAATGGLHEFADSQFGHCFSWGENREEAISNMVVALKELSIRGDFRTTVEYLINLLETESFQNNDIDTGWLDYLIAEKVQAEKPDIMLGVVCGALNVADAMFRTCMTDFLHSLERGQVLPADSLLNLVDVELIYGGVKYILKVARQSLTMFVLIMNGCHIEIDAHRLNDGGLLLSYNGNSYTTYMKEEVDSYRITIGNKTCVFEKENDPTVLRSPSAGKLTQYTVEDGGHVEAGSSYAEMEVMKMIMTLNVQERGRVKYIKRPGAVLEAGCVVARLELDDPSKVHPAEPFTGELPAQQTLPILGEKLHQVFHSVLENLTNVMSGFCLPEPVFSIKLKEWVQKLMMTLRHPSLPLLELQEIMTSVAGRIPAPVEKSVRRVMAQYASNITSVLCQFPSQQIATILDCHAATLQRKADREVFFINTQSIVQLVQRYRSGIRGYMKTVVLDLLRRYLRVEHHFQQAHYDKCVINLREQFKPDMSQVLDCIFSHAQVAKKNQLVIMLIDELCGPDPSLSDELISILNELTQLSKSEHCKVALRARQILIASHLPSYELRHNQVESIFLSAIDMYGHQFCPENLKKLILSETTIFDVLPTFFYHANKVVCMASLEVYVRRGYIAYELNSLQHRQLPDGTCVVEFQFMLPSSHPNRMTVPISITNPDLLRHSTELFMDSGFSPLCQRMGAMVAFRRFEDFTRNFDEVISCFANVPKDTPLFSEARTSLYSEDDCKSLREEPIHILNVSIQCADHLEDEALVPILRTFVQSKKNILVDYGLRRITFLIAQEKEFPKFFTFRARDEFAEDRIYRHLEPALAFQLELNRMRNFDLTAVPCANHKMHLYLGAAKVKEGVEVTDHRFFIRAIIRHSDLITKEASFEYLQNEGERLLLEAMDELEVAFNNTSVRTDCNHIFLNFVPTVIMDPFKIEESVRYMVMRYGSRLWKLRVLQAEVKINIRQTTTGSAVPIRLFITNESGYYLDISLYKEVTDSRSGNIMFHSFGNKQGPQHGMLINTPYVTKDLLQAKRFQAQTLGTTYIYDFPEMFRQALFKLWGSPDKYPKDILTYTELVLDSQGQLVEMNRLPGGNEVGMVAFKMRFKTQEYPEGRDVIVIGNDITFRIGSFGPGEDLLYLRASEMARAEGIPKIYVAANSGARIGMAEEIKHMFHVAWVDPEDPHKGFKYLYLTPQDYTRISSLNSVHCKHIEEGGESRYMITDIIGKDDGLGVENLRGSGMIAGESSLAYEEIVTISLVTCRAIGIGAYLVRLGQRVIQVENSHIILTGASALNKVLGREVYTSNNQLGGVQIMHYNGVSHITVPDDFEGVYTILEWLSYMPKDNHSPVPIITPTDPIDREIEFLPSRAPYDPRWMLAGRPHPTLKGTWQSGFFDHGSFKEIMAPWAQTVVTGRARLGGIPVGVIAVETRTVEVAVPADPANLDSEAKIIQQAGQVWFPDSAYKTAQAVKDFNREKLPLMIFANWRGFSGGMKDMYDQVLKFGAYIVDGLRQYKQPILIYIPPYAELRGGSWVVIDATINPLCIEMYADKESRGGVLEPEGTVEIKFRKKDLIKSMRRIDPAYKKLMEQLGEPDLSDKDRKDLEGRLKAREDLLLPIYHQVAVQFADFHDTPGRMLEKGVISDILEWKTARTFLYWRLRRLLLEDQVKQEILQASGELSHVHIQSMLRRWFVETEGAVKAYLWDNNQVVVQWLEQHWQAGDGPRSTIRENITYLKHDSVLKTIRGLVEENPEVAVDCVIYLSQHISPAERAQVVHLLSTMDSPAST
The experiment in a line: ACC2 assay, spectrophotometric 384 well assay (NADH-linked, coupled lactate dehydrogenase/pyruvate kinase). Format: biochemical. As to conditions: hACC2 construct lacking the 128 N-terminal amino acids; 25° C., 340 nm, 15 minutes. How it is done:
Spectrophotometric 384 Well Assay
Malonyl CoA formation by acetyl CoA carboxylases is stoichometrically linked to the consumption of ATP. ACC2 activity is measured in a NADH-linked kinetic method measuring ADP generated during the ACC reaction using a coupled lactate dehydrogenase/pyruvate kinase reaction.
For biological testing, a human ACC2 construct which lacks the 128 amino acids at the N-terminus for increased solubility (nt 385-6966 in Genbank entry AJ575592) is cloned. The protein is then expressed in insect cells using a baculoviral expression system. Protein purification is performed by anion exchange.
All compounds are dissolved in dimethyl sulfoxide (DMSO) to a concentration of 10 mM.
Assay reactions are then carried out in 384-well plates, with hACC2 in an appropriate dilution and at final assay concentrations (f.c.) of 100 mM Tris (pH 7.5), 10 mM trisodium citrate, 25 mM KHCO3, 10 mM MgCl2, 0.5 mg/mL BSA, 3.75 mM reduced L-glutathione, 15 U/mL lactate dehydrogenase, 0.5 mM phosphoenolpyruvate, 15 U/mL pyruvate kinase, compounds at different concentrations at final DMSO concentrations of 1%.
The enzymatic reaction is then started by addition of a mixture of NADH, acetyl Coenzyme A (both 200 μM f.c.) and ATP (500 uM f.c.). The decrease of the optical density (slope S) is then determined at 25° C. at a wavelength of 340 nm over 15 minutes in a spectrophotometric reader.
Each assay microtiter plate contains wells with vehicle instead of compound as controls for the non-inhibited enzyme (100% CTL; ‘HIGH’) and wells without acetyl-CoA as controls for non-specific NADH degradation (0% CTL; ‘LOW’). The slope S is used for calculation of % CTL=(S(compound)−S(‘LOW’))/(S(‘HIGH’)—S(‘LOW’))*100. Compounds will give values between 100% CTL (no inhibition) and 0% CTL (complete inhibition).
For IC50 value determination, the sample slope in the presence of the test compound after subtraction of the low controls (S(compound)−S(‘LOW’)) are used.
An IC50 value is derived from the compound slopes at different dosages after subtraction of the low controls (S(compound)−S(‘LOW’)) by non-linear regression curve fitting (equation y=(A+((B−A)/(1+((C/x)^D))))).
As for `CCOc1ccc(C#Cc2ccc(C(C)C(=O)NCC(=O)OC)cc2)cc1` (stereo not drawn) [Example 1.18], the IC50 amounted to 1300 nM.
For `CCOc1ccc(C#Cc2ccc(C(C)C(=O)NCc3ccno3)cc2)cc1` (stereo not drawn) [Example 6.18], the IC50 is 18700 nM.
`CCNC(=O)C(C)c1ccc(C#Cc2ccc(OCc3cnco3)cc2)cc1` (stereo not drawn) [Example 5.21] yielded an IC50 of 540 nM.
For the compound `CCNC(=O)C(C)c1ccc(C#Cc2ccn(CC(C)C)c(=O)c2)cc1` (stereo not drawn) [Example 7.34], the IC50 is 1100 nM. This IC50 is about 2-fold higher than that of the compound before.
In turn, `CCNC(=O)C(C)c1ccc(C#Cc2ccc(OCC3CC3)cc2)cc1` (stereo not drawn) [Example 7.4] returned an IC50 of 150 nM.
On to `CCNC(=O)C(C)c1ccc(C#Cc2ccc(OCC)nc2)cc1` (stereo not drawn) [Example 7.23], for which the IC50 was 560 nM.
On to `CCOc1ccc(C#Cc2ccc(C(C)C(=O)NC(C)CC)cc2)cc1` (stereo not drawn) [Example 1.13], for which the IC50 is 2800 nM.
Turning to `CCNC(=O)C(C)c1ccc(C#Cc2cnn(-c3ccccc3)c2)cc1` (stereo not drawn) [Example 7.32], the IC50 is 440 nM.
For `CCNC(=O)C(C)c1ccc(C#Cc2ccc(OC)cc2)cc1` (stereo not drawn) [Example 4.1, N-Ethyl-2-[4-(4-methoxy-phenylethynyl)-phenyl]-propionamide] the value was 260 nM; for `CCNC(=O)C(C)c1ccc(C#Cc2ccc(OC(F)F)cc2)cc1` (stereo not drawn) [Example 7.6], 4300 nM.
As to `CCNC(=O)C(C)c1ccc(C#Cc2ccc(OCc3cncs3)cc2)cc1` (stereo not drawn) [Example 5.10], half-maximal inhibition (IC50) required 3700 nM.
Next, `CCNC(=O)C(C)c1ccc(C#Cc2ccc(OCC)cc2)cc1` (stereo not drawn) [Example 1.5]: 90 nM; `CCNC(=O)C(C)c1ccc(C#Cc2ccnc(OC(C)C)c2)cc1` (stereo not drawn) [Example 7.44]: 250 nM.
On to `CCNC(=O)C(C)c1ccc(C#Cc2ccc(OC)c(OC)c2)cc1` (stereo not drawn) [Example 7.48], for which half-maximal inhibition (IC50) was put at 25700 nM.
Turning to `CCCOc1ccc(C#Cc2ccc(C(C)C(=O)NCC)cc2)c(C#N)c1` (stereo not drawn) [Example 7.39], half-maximal inhibition (IC50) was put at 1200 nM.
With `CCOc1ccc(C#Cc2ccc(C(C)C(=O)Nc3cncnc3)cc2)cc1` (stereo not drawn) [Example 6.5], the concentration for half-maximal inhibition (IC50) worked out at 60 nM.
Next, `CCNC(=O)C(C)c1ccc(C#Cc2cc(OCc3ccccc3)ncn2)cc1` (stereo not drawn) [Example 7.31]: 640 nM.
For the compound `CCNC(=O)C(C)c1ccc(C#Cc2cnc(Oc3ccccc3)nc2)cc1` (stereo not drawn) [Example 3.3], the IC50 amounted to 920 nM.
Turning to `CCOc1ccc(C#Cc2ccc(C(C)C(=O)NC3COC3)cc2)cc1` (stereo not drawn) [Example 6.8], half-maximal inhibition (IC50) was put at 620 nM.
In turn, `CCOc1ccc(C#Cc2ccc(C(C)C(=O)Nc3cc(C)nn3C)cc2)cc1` (stereo not drawn) [Example 6.1, N-(2,5-Dimethyl-2H-pyrazol-3-yl)-2-[4-(4-ethoxy-phenylethynyl)-phenyl]-propionamide] had an IC50 of 230 nM. This IC50 lies about 2.7-fold lower than the previous one.
Compound `CCOc1ccc(C#Cc2ccc(C(C)C(=O)Nc3ccn[nH]3)cc2)cc1` (stereo not drawn) [Example 6.20] came in with an IC50 of 8300 nM.
Next, `CCOc1ccc(C#Cc2ccc(C(C)C(=O)NCc3ncn[nH]3)cc2)cc1` (stereo not drawn) [Example 6.19]: 4500 nM; `CCNC(=O)C(C)c1ccc(C#Cc2ccc(OCC3(C)COC3)cc2)cc1` (stereo not drawn) [Example 5.15]: 2700 nM; `CCOc1ccc(C#Cc2ccc(CC(=O)N(C)C)cc2)cc1` [Example 1.21]: 30000 nM.
`CCNC(=O)C(C)c1ccc(C#Cc2ccc(OC(C)C)nn2)cc1` (stereo not drawn) [Example 7.36] displayed an IC50 of 3800 nM. This IC50 lies about 7.9-fold lower than the previous one.
With `CCNC(=O)C(C)c1ccc(C#Cc2ccc(OCCc3cn[nH]c3)cc2)cc1` (stereo not drawn) [Example 5.17], the IC50 was found to be 930 nM.
Turning to `CCNC(=O)C(C)c1ccc(C#Cc2ccc(OC(C)(C)C)cc2)cc1` (stereo not drawn) [Example 7.17], the IC50 was determined as 360 nM.
For `CCNC(=O)C(C)c1ccc(C#Cc2ccc(SC)cc2)cc1` (stereo not drawn) [Example 7.7] the value was 250 nM; for `CCNC(=O)C(C)c1ccc(C#Cc2cncc(OC)c2)cc1` (stereo not drawn) [Example 7.14], 5000 nM.
For `CCNC(=O)C(C)c1ccc(C#Cc2ccc3c(c2)C(=O)CC3)cc1` (stereo not drawn) [Example 7.18] the value was 2200 nM; for `CCCOc1ccc(C#Cc2ccc(C(C)C(=O)NCC)cc2)c(Cl)c1` (stereo not drawn) [Example 7.40], 140 nM; for `CCNC(=O)C(C)c1ccc(C#Cc2cnc(OC3CCC3)nc2)cc1` (stereo not drawn) [Example 3.2], 400 nM.
Compound `CCNC(=O)C(C)c1ccc(C#Cc2cnc(NC(C)CC)nc2)cc1` (stereo not drawn) [Example 2.6] showed an IC50 of 410 nM.
For `CCOc1ccc(C#Cc2ccc(CC(C)C(=O)NC3CC3)cc2)cc1` (stereo not drawn) [Example 1.25] the value was 730 nM; for `CCOc1ccc(C#Cc2ccc(C(C)C(=O)Nc3cccc(OC)n3)cc2)cc1` (stereo not drawn) [Example 6.4], 410 nM.
For `CCOc1ccc(C#Cc2ccc(C(C)C(=O)Nc3ccn[nH]3)cc2)cc1` (stereo not drawn) [Example 6.6] the value was 3600 nM; for `CCCOc1ccc(C#Cc2ccc(C(C)(C)C(N)=O)cc2)cc1` [Example 1.19], 29200 nM.
For the compound `CCOc1ccc(C#Cc2ccc(C(C)C(=O)Nc3ccnnc3)cc2)cc1` (stereo not drawn) [Example 6.12], half-maximal inhibition (IC50) required 130 nM.
As to `CCOc1ccc(C#Cc2ccc(C(C)C(=O)NC)cc2)cc1` (stereo not drawn) [Example 1.3], the IC50 was 220 nM.
In turn, `CCNC(=O)C(C)c1ccc(C#Cc2ccc(OCC(C)F)cc2)cc1` (stereo not drawn) [Example 5.19] showed an IC50 of 250 nM. The IC50 values of the last two compounds are within 1.5-fold of each other.
Turning to `CCOc1ccc(C#Cc2ccc(C(C)C(=O)NCC3CCOC3)cc2)cc1` (stereo not drawn) [Example 6.25], the IC50 turned out to be 12800 nM. This IC50 is about 51-fold higher than that of the compound before.
Regarding `CCNC(=O)C(C)c1ccc(C#Cc2ccc(OC3CCC3)cc2)cc1` (stereo not drawn) [Example 7.3], 110 nM corresponded to half-maximal inhibition (IC50).
In the case of `CCNC(=O)C(C)c1ccc(C#Cc2ccc(OC(C)C)nc2)cc1` (stereo not drawn) [Example 7.29], it took 250 nM to reach half-maximal inhibition (IC50).
`CCOc1ccc(C#Cc2ccc(C(C)C(=O)N(C)C)cc2)cc1` (stereo not drawn) [Example 1.4]: the IC50 was 16100 nM.
The compound `CCNC(=O)C(C)c1ccc(C#Cc2ccnc(Oc3ccccc3)c2)cc1` (stereo not drawn) [Example 7.45] registered an IC50 of 390 nM. This IC50 lies about 41-fold lower than the previous one.
Next, `CCNC(=O)C(C)c1ccc(C#Cc2cnc(NCc3ccccc3)nc2)cc1` (stereo not drawn) [Example 2.13]: 240 nM.
For `CCOc1ccc(C#Cc2ccc(C(C)C(=O)Nc3ncco3)cc2)cc1` (stereo not drawn) [Example 6.7], it took 3300 nM to reach half-maximal inhibition (IC50). This IC50 is about 14-fold higher than that of the compound before.
Next, `CCNC(=O)C(C)c1ccc(C#Cc2ccc(C(C)C)cc2)cc1` (stereo not drawn) [Example 7.1, N-Ethyl-2-[4-(4-isopropyl-phenylethynyl)-phenyl]-propionamide]: 1300 nM; `CCNC(=O)C(C)c1ccc(C#Cc2ccc(C(=O)Cn3cnc(C)c3)cc2)cc1` (stereo not drawn) [Example 7.21]: 22500 nM; `CCNC(=O)C(C)c1ccc(C#Cc2ccc3c(c2)OCC3)cc1` (stereo not drawn) [Example 7.20]: 500 nM.
For the compound `CCNC(=O)C(C)c1ccc(C#Cc2cnc(NCc3ccncc3)nc2)cc1` (stereo not drawn) [Example 2.16], the IC50 was determined as 7400 nM.
The compound `CCNC(=O)C(C)c1ccc(C#Cc2ccc(OCc3ccco3)cc2)cc1` (stereo not drawn) [Example 5.1, N-Ethyl-2-{4-[4-(furan-2-ylmethoxy)-phenylethynyl]-phenyl}-propionamide] yielded an IC50 of 1500 nM.
In turn, `CCOc1ccc(C#Cc2ccc(C(C)C(=O)NCC#N)cc2)cc1` (stereo not drawn) [Example 1.11] showed an IC50 of 660 nM.
Next, `CCNC(=O)C(C)c1ccc(C#Cc2ccc(OCC3CCOC3)cc2)cc1` (stereo not drawn) [Example 5.6]: 230 nM; `CCCOc1ccc(C#Cc2ccc(C(C)(C)C(=O)NC3CC3)cc2)cc1` [Example 1.14]: 600 nM; `CCNC(=O)C(C)c1ccc(C#Cc2ccnc(Oc3cncnc3)c2)cc1` (stereo not drawn) [Example 7.38]: 2900 nM.
For `CCNC(=O)C(C)c1ccc(C#Cc2ccnc(OCC)c2)cc1` (stereo not drawn) [Example 7.9] the value was 250 nM; for `CCOc1ccc(C#Cc2ccc(C(C)C(=O)NCc3cnco3)cc2)cc1` (stereo not drawn) [Example 6.24], 1800 nM; for `CCNC(=O)C(C)c1ccc(C#Cc2ccc(OCC(C)C)cc2)cc1` (stereo not drawn) [Example 5.3], 240 nM.
In the case of `CCNC(=O)C(C)c1ccc(C#Cc2ccc(OCCCOC)cc2)cc1` (stereo not drawn) [Example 5.12], the IC50 worked out at 440 nM. Compared with the last compound, the IC50 is about 1.8-fold higher.
`CCNC(=O)C(C)c1ccc(C#Cc2ccc(C3CC3)cn2)cc1` (stereo not drawn) [Example 7.33] gave an IC50 of 5400 nM.
In turn, `CCOc1ccc(C#Cc2ccc(C(C)C(=O)Nc3nnc(C)o3)cc2)cc1` (stereo not drawn) [Example 6.3] showed an IC50 of 830 nM. Compared with the last compound, the IC50 is about 6.5-fold lower.
On to `CCNC(=O)C(C)c1ccc(C#Cc2cnn(Cc3ccccc3)c2)cc1` (stereo not drawn) [Example 7.12], for which the IC50 came out at 1000 nM.
In turn, `CCCOc1cc(C#Cc2ccc(C(C)C(=O)NCC)cc2)ccn1` (stereo not drawn) [Example 7.10] registered an IC50 of 270 nM. This IC50 is about 3.7-fold lower than that of the compound before.
Consider `CCNC(=O)C(C)c1ccc(C#Cc2ccc(CNc3ccccn3)cc2)cc1` (stereo not drawn) [Example 7.16], for which inhibition was half-maximal at 1500 nM (IC50). This IC50 is about 5.6-fold higher than that of the compound before.
`CCOc1ccc(C#Cc2ccc(CC(C)C(=O)NC)cc2)cc1` (stereo not drawn) [Example 1.24] gave an IC50 of 2700 nM.
